Patent publication US20080125414A1, “Method of Treatment” (priority 2002, published 2008)
“And” between values parts separate entries of the source, which are not always exact repeats. Identical values can stand only once.

What was measured:
Format in all cases: in vivo
[1] = system: patients with moderate or severe neuropathic pain; assay: Multi-centre, double blind placebo controlled crossover study of devazepide as adjunctive therapy to strong opioids
[2] = system: patients with neuropathic pain; assay: Open label multicentre continuation study of devazepide (clinical assessment study); details: devazepide 1.25 mg, 2.5 mg or 5.0 mg twice daily for up to 26 weeks
Text: Patients who took part in the study had pain with a neuropathic element, and were taking regular doses of strong opioids. […] The primary objective of this study was to compare descriptive and visual analogue scale (VAS) assessments of pain and pain relief in patients with neuropathic pain. […] Devazepide treatment was continued for a period of up to six months. During the study patients were required to remain on regular doses of opioids at a dose prescribed by the investigator. Patients were assessed at clinic visits at week 1, week 2 (dose escalation) and thereafter at routine monthly clinic visits. At weekly intervals for the first eight weeks and at monthly intervals thereafter, patients recorded pain and global pain relief using VAS and descriptive pain questionnaires. The questionnaires were returned to the Investigator at the monthly visits. At each clinic visit the Investigator assessed safety and the patients' pain relief, reviewed the dosage, and decided if devazepide treatment should be continued.

[3] = system: patient undergoing opioid therapy; assay: Clinical studies of devazepide in combination with an opioid (opioid dose reduction); details: for reduction of opioid dose: clinical studies, devazepide with opioid

CN1C(=O)[C@@H](NC(=O)c2cc3ccccc3[nH]2)N=C(c2ccccc2)c2ccccc21 [devazepide, 3s-(−) 1,3dihydro-3-(2-indolecarbonylamino)-1-methyl-5-phenyl-2H-1,4-benzodiazepin-2-one]
Analgesic use expressed as a percentage of pre-treatment use (sum of daily dose) ([1]; in vivo): 100% and 67%
Analgesic use expressed as a percentage of pre-treatment use (sum of daily dose) ([1]; patient ap06/05, analgesic morphine (mg), devazepide 1.25 mg twice daily for two weeks): 104%
Analgesic use expressed as a percentage of pre-treatment use (sum of daily dose) ([1]; patient ap06/05, analgesic morphine (mg), devazepide 5 mg twice daily for two weeks): 100%
Analgesic use expressed as a percentage of pre-treatment use (sum of daily dose) ([1]; patient ap06/05, analgesic tramadol (mg), devazepide 1.25 mg twice daily for two weeks): 79%
Analgesic use expressed as a percentage of pre-treatment use (sum of daily dose) ([1]; patient ap06/05, analgesic tramadol (mg), devazepide 5 mg twice daily for two weeks): 54%
Analgesic use expressed as a percentage of pre-treatment use (sum of daily dose) ([1]; patient gg01/01, analgesic co-codamol (tablets), devazepide 1.25 mg twice daily for two weeks): 106%
Analgesic use expressed as a percentage of pre-treatment use (sum of daily dose) ([1]; patient gg01/01, analgesic co-codamol (tablets), devazepide 5 mg twice daily for two weeks): 78%
Analgesic use expressed as a percentage of pre-treatment use (sum of daily dose) ([1]; patient gg03/03, analgesic morphine (mg), devazepide 1.25 mg twice daily for two weeks): 55%
Analgesic use expressed as a percentage of pre-treatment use (sum of daily dose) ([1]; patient gg03/03, analgesic morphine (mg), devazepide 5 mg twice daily for two weeks): 93%
Analgesic use expressed as a percentage of pre-treatment use (sum of daily dose) ([1]; patient ng02/02, analgesic diclofenac (mg), devazepide 1.25 mg twice daily for two weeks): 17%
Analgesic use expressed as a percentage of pre-treatment use (sum of daily dose) ([1]; patient ng02/02, analgesic diclofenac (mg), devazepide 5 mg twice daily for two weeks): 50%
Analgesic use expressed as a percentage of pre-treatment use (sum of daily dose) ([1]; patient ng02/02, analgesic morphine (mg), devazepide 1.25 mg twice daily for two weeks): 87%
Analgesic use expressed as a percentage of pre-treatment use (sum of daily dose) ([1]; patient ng02/02, analgesic morphine (mg), devazepide 5 mg twice daily for two weeks): 84%
Analgesic use expressed as a percentage of pre-treatment use (sum of daily dose) ([1]; patient ng05/05, analgesic morphine (mg), devazepide 1.25 mg twice daily for two weeks): 104%
Analgesic use expressed as a percentage of pre-treatment use (sum of daily dose) ([1]; patient ng05/05, analgesic morphine (mg), devazepide 5 mg twice daily for two weeks): 100%
Analgesic use expressed as a percentage of pre-treatment use (sum of daily dose) ([1]; patient ng05/05, analgesic paracetamol (mg), devazepide 1.25 mg twice daily for two weeks): 48%
Analgesic use expressed as a percentage of pre-treatment use (sum of daily dose) ([1]; patient ng05/05, analgesic paracetamol (mg), devazepide 5 mg twice daily for two weeks): 14%
Analgesic use expressed as a percentage of pre-treatment use (sum of daily dose) ([1]; patient sj03/03, analgesic morphine (mg), devazepide 1.25 mg twice daily for two weeks): 93%
Analgesic use expressed as a percentage of pre-treatment use (sum of daily dose) ([1]; patient sj03/03, analgesic morphine (mg), devazepide 5 mg twice daily for two weeks): 97%
Analgesic use expressed as a percentage of pre-treatment use (sum of daily dose) ([1]; patient sj03/03, analgesic morphine (ml), devazepide 1.25 mg twice daily for two weeks): 13%
Analgesic use expressed as a percentage of pre-treatment use (sum of daily dose) ([1]; patient sj03/03, analgesic morphine (ml), devazepide 5 mg twice daily for two weeks): 5%
Analgesic use expressed as a percentage of pre-treatment use (sum of daily dose) ([1]; patient sj10/73, analgesic dihydrocodeine (mg), devazepide 1.25 mg twice daily for two weeks): 100%
Analgesic use expressed as a percentage of pre-treatment use (sum of daily dose) ([1]; patient sj10/73, analgesic dihydrocodeine (mg), devazepide 5 mg twice daily for two weeks): 50%
Analgesic use expressed as a percentage of pre-treatment use (sum of daily dose) ([1]; patient sj10/73, analgesic morphine (mg), devazepide 1.25 mg twice daily for two weeks): 100%
Analgesic use expressed as a percentage of pre-treatment use (sum of daily dose) ([1]; patient sj10/73, analgesic morphine (mg), devazepide 5 mg twice daily for two weeks): 98%
Analgesic use expressed as a percentage of pre-treatment use (sum of daily dose) ([1]; patient sj10/73, analgesic paracetamol (mg), devazepide 1.25 mg twice daily for two weeks): 75%
Analgesic use expressed as a percentage of pre-treatment use (sum of daily dose) ([1]; patient sj10/73, analgesic paracetamol (mg), devazepide 5 mg twice daily for two weeks): 50%
patients who appeared to achieve long-term pain relief ([2]; of seventeen patients, long-term = 5-26 weeks, with regular opioids): ten
daily opioid dose ([2]; several patients): markedly reduced
reduction of opioid dose ([3]; in others): ≤ 75%
reduction of opioid dose ([3]; in some cases): ≤ 95%
effect in combination with an opioid ([3]; opioid dose reduced concurrent with improved analgesia): superpotentiating
